{"source": "patent US9949489B2", "about": "“Methods for control of hemipteran insect stylet sheath structure formation” (The United States of America, as Represented by the …, priority 2015, dated 2018)", "key": {"[1]": {"test_system": "D. citri stylet sheaths (ACP SSs)", "experiment": "Degradation of preformed, solidified stylet sheaths by enzymes (MFC membrane or slide incubation)", "design": "species or system Diaphorina citri; key to Sheath Degradation: −: No effect apparent; +/−: inconclusive; +: apparent slight effect; ++: increased apparent effect; +++: high effect; ++++: very high effect; +++++: complete degradation of sheaths or inhibition of sheath synthesis", "details": "D. citri preformed sheaths; enzyme concentration, pH and temperature per Table 4 (cellulase 1:25, pH 6.0, 60° C.)", "procedure": "In order to test cellulase's effect on preformed ACP SSs, formed, solidified stylet sheaths were harvested directly from the surface of an MFC membrane (in these experiments either plastic wrap or parafilm was used) as described herein and in Morgan et al. 2013, supra. Approximately 100 psyllids were placed into an MFC for about 24 hours. The MFCs consisted of D. citri caged individually and/or in groups within 100 mm×15 mm plastic Petri dishes. A single kitchen plastic wrap layer was stretched across the top of each Petri dish to seal the Petri dish from insect escape and to provide a stylet penetrable surface for insect probing.\nSeveral MFCs (the Petri dishes covered with kitchen plastic wrap or parafilm and containing D. citri) were placed into clear Pyrex® baking dishes with the membrane (kitchen plastic wrap or parafilm) side up, and the Pyrex® baking dish is covered with a single layer of clear kitchen plastic wrap to prevent external contaminant interactions with the membrane surface during incubation. MFCs were incubated at a temperature of about 25° C., relative humidity of about 75%, and a light:dark cycle of about […]. […]"}, "D. citri [2]": {"test_system": "D. citri", "experiment": "Liquid ACP diet sandwich feeding assay (MFC): inhibition of de novo stylet sheath formation", "type": "in vivo, Diaphorina citri", "details": "about 24 h; cellulase approx 1 unit/μl; BAPN 100 mM; EDTA approx 2 mM; proteases per Table 5", "procedure": "The next step was to determine if addition of cellulase to the diet of D. citri would interfere with stylet sheath formation. A D. citri diet is prepared as described by Hall, David et al., “Research toward an artificial diet for adult Asian citrus psyllid,” Annals of the Entomological Society of America 103.4:611-617 (2010). Approximately 25 D. citri were collected into polystyrene Cellstar 35 mm×10 mm dishes (Griener Bio-One, Monroe, N.C.) that were then sealed using a single layer of Parafilm® M (Pechiney Plastic Packaging Company, Chicago, Ill.). Approximately 99 μl of liquid ACP diet (e.g., diet lacking the solidifying agar component, see Hall, et. al., 2010, supra) was mixed with approximately 1 μl of cellulase (Sigma Aldrich, St. Louis, Mo.) and mixed. […] layer Parafilm® M surface, which was then covered with another layer of Parafilm® M to form a sandwich (e.g., Parafilm® M—liquid ACP diet with cellulase—Parafilm® M) to allow ACP to feed into the liquid ACP diet containing cellulase. This MFC was then incubated at about 25° C., at about 75% relative humidity, with a light:dark cycle of approximately 14:10 hours for a period of about 24 hours. After about 24 hours, the stylet sheaths were observed using an inverted microscope. FIGS. 3G through 3I are images of three separate locations where D. citri made attempts to feed into the liquid ACP diet containing approximately 1 unit/μl cellulase.\nBecause many biomolecule polymerizing enzymes require divalent cations as cofactors, the effect of ethylenediaminetetraacetic acid (EDTA), a chelator of divalent cations, on ACP SS formation was tested by adding EDTA to the previously described liquid ACP diet (see Hall et al., 2010, supra). The EDTA was added to the liquid ACP diet at a concentration of approximately 2 mM EDTA in diH2O. Approximately 200 D. citri were placed in plastic Petri dishes. The dishes were covered with a single layer of Parafilm® M to form MFC. […] The MFC plates were incubated at a temperature of about 25° C., a relative humidity of about 75%, and a light/dark cycle of about 14:10 hours duration. Following the 24-hour incubation, the fluid (either liquid ACP diet containing EDTA or just the liquid ACP diet) between the two sheets of plastic was harvested by using a sterile 5 ml syringe and 20-gauge needle which was pushed into the center of the Parafilm® M-fluid-Parafilm® M sandwich, and the fluid was then removed by syringe plunger suction. The harvested fluids were put into sterile 50 ml conical vials, placed at about −80° C. until frozen. Each vial of harvested fluid was then lypholyzed overnight. The lyophilized product was then solubilized in […], placed at about −80° C. until frozen, then each new vial was lyopholyzed overnight. The lyophilized product was then solubilized in approximately 15 μL of approximately 1× Laemmili buffer (Bio-Rad, Hercules, Calif.) containing approximately 5% 2-mercaptoethanol. The sample was loaded onto a sodium dodecyl sulfate polyacrylamide gel (SDS-PAGE) and underwent electrophoresis. The SDS PAGE gel was then stained with coomassie. Uncommon bands between the liquid ACP diet containing EDTA and liquid ACP diet without EDTA (negative control) lanes were cut out and analyzed by Orbitrap (Thermo Scientific, Waltham, Mass.) protein analysis, according to manufacturer's protocol.\nAfter about 24-hour incubation, D. citri feeding sites were observed. […] See also Table 2 and Table 3, infra."}, "D. citri [3]": {"test_system": "D. citri", "experiment": "Liquid ACP diet sandwich feeding assay (MFC): inhibition of de novo stylet sheath formation", "type": "in vivo, Diaphorina citri", "design": "key: −: No effect apparent; +/−: inconclusive; +: apparent slight effect; ++: increased apparent effect; +++: high effect; ++++: very high effect; +++++: complete degradation of sheaths or inhibition of sheath synthesis", "details": "enzyme in liquid ACP diet, about 24 h, 25° C., enzyme amounts and pH per Table 5 (cellulase approx 1 unit/μl)", "procedure": "The next step was to determine if addition of cellulase to the diet of D. citri would interfere with stylet sheath formation. A D. citri diet is prepared as described by Hall, David et al., “Research toward an artificial diet for adult Asian citrus psyllid,” Annals of the Entomological Society of America 103.4:611-617 (2010). Approximately 25 D. citri were collected into polystyrene Cellstar 35 mm×10 mm dishes (Griener Bio-One, Monroe, N.C.) that were then sealed using a single layer of Parafilm® M (Pechiney Plastic Packaging Company, Chicago, Ill.). Approximately 99 μl of liquid ACP diet (e.g., diet lacking the solidifying agar component, see Hall, et. al., 2010, supra) was mixed with approximately 1 μl of cellulase (Sigma Aldrich, St. Louis, Mo.) and mixed. […]\nBecause many biomolecule polymerizing enzymes require divalent cations as cofactors, the effect of ethylenediaminetetraacetic acid (EDTA), a chelator of divalent cations, on ACP SS formation was tested by adding EDTA to the previously described liquid ACP diet (see Hall et al., 2010, supra). […] Uncommon bands between the liquid ACP diet containing EDTA and liquid ACP diet without EDTA (negative control) lanes were cut out and analyzed by Orbitrap (Thermo Scientific, Waltham, Mass.) protein analysis, according to manufacturer's protocol. […]"}}}
{"substance": "Chymopapain from papaya latex: Cysteine peptidase; Sigma #C8526", "values": [{"measurement": "Sheath Degradation", "setting": "[1]", "value": "+++++"}, {"measurement": "Effect on D. citri stylet sheath formation in liquid ACP diet", "setting": "D. citri [2]", "value": "capable of inhibiting the formation of ACP SSs"}, {"measurement": "Inhibition of Sheath Formation", "setting": "D. citri [3]", "value": "+++++"}]}
